Read-outs that look alike come from different tables or passages of the source.

The nature of this data set: Fasting single dose PK study in dogs: plasma ondansetron after intravenous bolus of marketed ondansetron injection (reference). It is filed as in vivo. As to conditions: fasted male Beagle dogs; for C0: 2 mg/mL solution; for Vd: read-out: Vss. As to the method:
Male Beagle dogs were fasted are divided into six groups as G1, G2, G3, G4, G5 and G6 each consisting of four dogs.
Blood samples were collected from each IM route dogs at 0 (pre-dose), 0.5, 1, 2, 4, 8, 16, 24, 36, 48, 72, 96, 120, 144, 168 and 240 h post-dose; for IV route dogs, blood samples were collected at 0 (pre-dose), 0.167, 0.33, 0.5, 0.75, 1, 2, 4, 8, 12 and 24 h post-dose and analysed for ondansetron in plasma and calculated using the noncompartmental analysis tool of the validated Phoenix WinNonlin software (Version 8.0). The summary of plasma pharmacokinetics parameters of ondansetron for G1 and G2 animals is summarized in Table—2 (FIGS. 1, 2) and G3, G4, G5 and G6 (FIGS. 3, 4, 5 and 6) animals is summarized in Table— 3.

For the setting “G1, IV bolus 4 mg/dog”, `Cc1nccn1CC1CCc2c(c3ccccc3n2C)C1=O` (centres unmarked) [Ondansetron] displayed a C0 of 110 ng/mL, an AUC(0-inf) of 107 ng·h/mL, an AUC(0-t) of 106 ng·h/mL and a mean residence time (MRT last) of 1.12 h. Further, for the setting “G1, IV bolus 4 mg/dog”, the clearance stood at 644 mL/min, the half-life is 0.878 h and the Vd was found to be 40.3 L. Where the note is “G2, IV bolus 24 mg/dog”, this molecule returned a C0 of 828 ng/mL, a total exposure AUC(0-inf) of 716 ng·h/mL, an AUC(0-t) of 715 ng·h/mL and a mean residence time (MRT last) of 1.17 h. Moreover, under “G2, IV bolus 24 mg/dog”, the clearance was determined as 563 mL/min, the half-life was 1.28 h and the Vd turned out to be 36.3 L.

For orientation: AUC(0-inf) means total exposure, with the tail of the curve extrapolated. A lower AUC(0-inf) goes with low exposure. What is called AUC(0-t) is the area under the concentration-time curve up to a stated or last time point. For orientation: MRT last means a mean duration of stay, worked out from the concentration-time curve. One may read the clearance as the rate of elimination divided by the concentration. A high value points to a high capacity for elimination. A word on the half-life: it is how long it takes for the measured level to halve.

These data come from patent US12508247B2, “Controlled release injectable ondansetron formulations” (SHILPA MEDICARE LIMITED, priority 2019, dated 2025).
